Test results: article PMC8481502, “Bovine NK-lysin peptides exert potent antimicrobial activity against multidrug-resistant Salmonella outbreak isolates” (Scientific Reports, 2021)
Peptide text beside a SMILES is read from it.

Legend:
[1] = test system: MDR Salmonella enterica serovar I 4,[5],12:i:- strain USDA15WA-1 (SX238); assay: Growth curve assay (automated reader, OD600) with isolate SX238; type: cell-based; conditions: for growth inhibition activity on SX238 at highest tested concentration: up to 20 µM peptide, 24 h growth curve; for time at which bacteria recovered and grew after initial inhibition: SX238, LB broth
Procedure: (§1) Overnight cultures of a MDR Salmonella outbreak isolate (SX238) and one non-MDR Salmonella isolate (SB377) were diluted 1:1000 in LB broth to obtain approximately 1 × 10^6 colony forming units per milliliter (CFU/mL). One hundred microliters of each diluted culture were transferred into honeycomb® 100-well plates (~ 1 × 10^5 CFU/well) (Growth Curves USA, Piscataway, NJ). Bovine NK-lysin peptides (NK1, NK2A, NK2B, and NK2C) were added at the final peptide concentrations of 20, 10, 5, 3.5, 2 µM in PBS (total volume = 20 µL) with a final bacterial-peptide volume of 120 µL/well. The plates were covered with lids and placed in an automated growth curve reader (Bioscreen C; Growth Curves USA, Piscataway, NJ) which was programmed for continuous shaking at 37 °C, and optical density readings at 600 nm (OD600) were recorded every hour for 24 h. […] The optical density data were analyzed, and growth curve graphs for each isolate were generated using MS Excel. […] Twenty-four-hour growth curve assays for Salmonella isolate SX238 were repeated at different bacterial CFU (~ 1 × 10^5, 1 × 10^6, 1 × 10^7, and 1 × 10^8 CFU/mL) with NK2A (5 µM and 10 µM). Sc-NK2A was included as a control for the assay.

[2] = test system: Salmonella enterica serovar Typhimurium isolate UK-1 (SB377, non-MDR); assay: Growth curve assay (automated reader, OD600) with isolate SB377; type: cell-based; conditions: for growth inhibition activity on SB377 at highest tested concentration: up to 20 µM peptide, 24 h growth curve; for time at which bacteria recovered and grew after initial inhibition: SB377, LB broth
Procedure: as §1

[3] = test system: MDR Salmonella enterica serovar Typhimurium DT193 strain 1434 (SX231); assay: Growth curve assay (automated reader, OD600) with isolate SX231; type: cell-based; conditions: 20 µM peptide, LB broth, 24 h growth curve
[4] = test system: MDR Salmonella enterica serovar Heidelberg (SB395); assay: Growth curve assay (automated reader, OD600) with isolate SB395; type: cell-based; conditions: 20 µM peptide, LB broth, 24 h growth curve
Swiss-Webster mice = assay: Mouse study of in vivo cytotoxic effects; conditions: single intraperitoneal dose 100 µg (~ 4 mg/kg) in PBS, female Swiss-Webster mice, 5 per cage, 2-week observation
Procedure: To determine whether NK-lysin peptides show in vivo cytotoxic effects, a mouse study was conducted. Briefly, thirty 5–6 weeks old female Swiss-Webster mice (Envigo, Indianapolis, IN) were housed in groups in six individual cages (5 mice per cage) in ABSL2 facilities with ad libitum access to food and water in a 12-h light:dark cycle. After 1 week of acclimation, mice were intraperitoneally injected with a single dose of 100 µg of NK-lysin peptides (NK1, NK2A, NK2B, NK2C, or Sc-NK2A, ~ 4 mg/kg of body weight) in PBS (1 mL). Mice injected with PBS (1 mL) served as a negative control for the study. Mice were daily observed for any signs of toxicity and were euthanized 2 weeks post peptide administration.

Salmonella SX238 = assay: LIVE/DEAD BacLight staining, confocal laser scanning microscopy; type: cell-based, Salmonella enterica serovar I 4,[5],12:i:-; conditions: 5 µM peptide
Procedure: The viabilities of bacteria following incubation with NK2A and Sc-NK2A were determined using culture-independent (function of the membrane integrity of the bacteria) staining technique by using LIVE/DEAD™ BacLight™ bacterial viability kit (for microscopy) as described previously. Bacteria in each treatment was visualized using a Nikon A1R + laser scanning confocal microscope (Nikon Instruments, Melville, NY) as described previously. Images were obtained using plan Apo 60 × objective lens (oil) at numerical aperture 1.4. Final figures were prepared using Adobe Photoshop Elements 11.

[5] = test system: Salmonella SX238 outer- and inner-membranes; assay: Transmission electron microscopy of peptide-treated bacteria; type: cell-based, Salmonella enterica serovar I 4,[5],12:i:-; conditions: 20 µM peptide, 1 h at 37 °C, ~1 × 10^7 CFU/well in PBS
Procedure: Morphological changes of bacteria following incubation with NK2A and Sc-NK2A peptides were studied by TEM. An overnight culture of Salmonella (isolate SX238) was centrifuged and resuspended in PBS. One hundred microliters of bacterial suspension were placed in a Honeycomb plate (~ 1 × 10^7 CFU/well) and NK2A, Sc-NK2A (20 µM), and PBS were added and incubated at 37 °C with continuous shaking for 1 h. The bacterial suspensions were mixed with an equal volume of 3% glutaraldehyde in 0.1 M cacodylate buffer (pH 7.4) and processed for TEM as described before. Sections were examined with a FEI Tecnai G2 Biotwin (FEI Co., Hillboro, OR) TEM and images were taken with Advanced Microscopy Technologies (AMT Inc., Danvers, […]) imaging camera.

[6] = test system: MDR Salmonella outbreak isolate SX238 cytoplasmic membrane; assay: Propidium iodide (PI) uptake assay; type: cell-based, Salmonella enterica serovar I 4,[5],12:i:-
Procedure: The kinetics of NK2A-induced damage to Salmonella cell membranes were evaluated using PI uptake assay as described previously. Briefly, an overnight culture of MDR Salmonella outbreak isolate SX238 was centrifuged, washed with PBS, and resuspended in PBS. Ninety microliters of bacterial suspension was transferred to a 96-well opaque plate (~ 1 × 10^7 CFU/well), mixed with 10 µL of PI (final concentration = 3 µM) and incubated at 37 °C for 5 min. PBS, polymyxin B (2, 4, 25, 50 and 100 µg/mL), NK2A or Sc-NK2A (both at 2 and 5 µM) were added and PI fluorescent intensities in each well was continuously measured (15 s intervals, flex mode) using a FlexStation 3 multi-mode (fluorescent) microplate reader (Molecular Devices LLC., San Jose, CA) for up to 6 h. The excitation and emission wavelengths for PI was set up at 530 nm and 620 nm, respectively.

[7] = test system: Salmonella isolates (MDR and non-MDR); assay: Growth curve assay, statements over all Salmonella isolates; type: cell-based; conditions: 24 h incubation in LB broth, MDR and non-MDR isolates
Procedure: as §1

For CC[C@H](C)[C@H](NC(=O)[C@H](CCSC)NC(=O)[C@H](CS)NC(=O)[C@H](CCCNC(=N)N)NC(=O)[C@H](CCC(=O)O)NC(=O)[C@H](CCCCN)NC(=O)[C@H](CCCCN)NC(=O)[C@H](CS)NC(=O)[C@H](CCCCN)NC(=O)[C@H](CO)NC(=O)[C@H](CCCCN)NC(=O)CNC(=O)[C@@H](NC(=O)[C@H](CC(C)C)NC(=O)[C@H](CCCNC(=N)N)NC(=O)[C@@H](NC(=O)[C@@H](NC(=O)[C@H](C)NC(=O)[C@H](CC(C)C)NC(=O)[C@H](CO)NC(=O)[C@H](CC(C)C)NC(=O)[C@H](CO)NC(=O)[C@@H](NC(=O)[C@H](Cc1ccccc1)NC(=O)[C@@H](N)CCSC)C(C)C)[C@@H](C)O)[C@@H](C)CC)[C@@H](C)O)C(=O)N[C@@H](CC(C)C)C(=O)N[C@@H](CCCCN)C(=O)N[C@@H](CCCNC(=N)N)C(=O)N[C@@H](CCCNC(=N)N)C(=O)N[C@H](C(=O)O)C(C)C [Sc-NK2A] (H-MFVSLSLATIRLTGKSKCKKERCMILKRRV-OH; N-terminus and C-terminus assumed), the “growth inhibition of SX238 at the lowest bacterial concentration” value ([1]; 10 µM peptide, 10^4 CFU/well) was “failed to inhibit bacterial growth”, the “growth inhibition activity on SX238 at highest tested concentration” value ([1]; LB broth) was “failed to show Salmonella growth inhibition activity” and the “growth inhibition activity on SB377 at highest tested concentration” value ([2]; LB broth) was “failed to show Salmonella growth inhibition activity”. For the same compound, the “growth inhibition activity on SX231 at highest tested concentration” value [3] was “failed to show Salmonella growth inhibition activity”, the “growth inhibition activity on SB395 at highest tested concentration” value [4] was “failed to show Salmonella growth inhibition activity” and the “signs of toxicity or death” value (Swiss-Webster mice) was “did not show signs of toxicity or death”. The “live/dead staining result (SYTO 9 / PI)” value (Salmonella SX238) was “did not have detectable antimicrobial activity”, the “ultrastructural changes to bacterial membranes” value [5] was “did not cause detectable damage to the bacterial membranes” and the PI uptake signal ([6]; 5 µM peptide, 30 min, ~1 × 10^7 CFU/well in PBS, 3 µM PI) was “did not show PI uptake signals”.

With “TVIEAASKVCGKMGPLKGLCKSITKRFLRR [NK2B, 30-mer peptide corresponding to functional region helices 2-loop-3 of bovine NK-lysin NK2B]” the “peptide concentration at which growth of SX238 was completely inhibited” value ([1]; LB broth, ~1 × 10^5 CFU/well, 37 °C, OD600 every hour for 24 h, tested 2-20 µM, at least three experiments) was ≥ 5 µM, the “peptide concentration at which growth of SB377 was completely inhibited” value ([2]; LB broth, ~1 × 10^5 CFU/well, 37 °C, OD600 every hour for 24 h, tested 2-20 µM) was ≥ 5 µM and the “concentrations able to inhibit growth of Salmonella during 24 h” value [7] was 3.5 to 5 µM. For the same compound, the “signs of toxicity or death” value (Swiss-Webster mice) was “did not show signs of toxicity or death”.

With “TVIEEASKVCSKMRLLKGLCKSIMKKFLRT [NK2C, 30-mer peptide corresponding to functional region helices 2-loop-3 of bovine NK-lysin NK2C]” the “time at which bacteria recovered and grew after initial inhibition” value (shortened to “time … after initial inhibition”) ([1]; 10 µM peptide) was “approximately 7 h”, the “time … after initial inhibition” value ([1]; 20 µM peptide) was ~20 h and the “time … after initial inhibition” value ([2]; 10 µM peptide) was “approximately 7 h”. For the same compound, the “time … after initial inhibition” value ([2]; 20 µM peptide) was ~20 h and the “signs of toxicity or death” value (Swiss-Webster mice) was “did not show signs of toxicity or death”.

In the case of “VIIHVTSKVCSKMGLWSILCNQMMKKYLNR [NK1, 30-mer peptide corresponding to functional region helices 2-loop-3 of bovine NK-lysin NK1]”, the “growth inhibition activity on SX238 at highest tested concentration” value ([1]; LB broth) is reported as “did not show any Salmonella SX238 and SB377 growth inhibition activity”, the “growth inhibition activity on SB377 at highest tested concentration” value ([2]; LB broth) is reported as “did not show any Salmonella SX238 and SB377 growth inhibition activity” and the “signs of toxicity or death” value (Swiss-Webster mice) is reported as “did not show signs of toxicity or death”.

polymyxin B [reference compound] was tested, and the PI uptake signal ([6]; polymyxin B 2-100 µg/mL, 6 h observation) was “No PI uptake signal was observed” and the PI uptake signal ([6]; polymyxin B up to 100 µg/mL, 30 min observation) was “No PI uptake signal was observed”.
